{"source": "paper PMC11289893", "about": "(RSC Chemical Biology, 2024)", "system": "HeLa cells", "assay": "Cell proliferation", "format": "cell-based", "settings": "tested concentrations 0 to 20 μM", "data": [{"smiles": "COC[C@H]1OC(=O)c2coc3c2[C@@]1(C)C1=C(C3=O)[C@@H]2CCC(=O)[C@@]2(C)C[C@H]1OC(C)=O", "note": "[Wortmannin]", "values": [{"measurement": "cytotoxicity in HeLa cells", "result": "did not observe Wortmannin cytotoxicity"}]}]}
